Reference: patent publication US20100304418A1, “Compositions and Methods for Monitoring Flow Through Fluid Conducting and Containment Systems” (priority 2007, published 2010)

Tests used:
xanthine oxidase = target: T1, xanthine oxidase (Bos taurus, UniProt P80457); experiment: Limit of detection of xanthine and hypoxanthine, xanthine oxidase / Amplex Red assay
T1 construct: purchased
Text: This assay uses xanthine oxidase to catalyze the oxidation of hypoxanthine or xanthine, to uric acid and superoxide. The superoxide spontaneously degrades to hydrogen peroxide (H2O2), which reacts stoichiometrically with Amplex® Red in the presence of horseradishperoxidase (HRP). A fluorescent product, resorufin, is generated which can be detected fluorometrically or spectrophotometrically.

seawater bacteria = details: 28 day seawater test
[1] = Biodegradation, 28 day seawater test, OECD 306; details: over 28 days
[2] = Heat treatment of GFP solution with added biotin; details: 100° C. for 1 hour in GFP solution
Experimental: The sample has high fluorescence from the GFP. This solution was treated in 2 ways (a) no treatment (b) heat treated (samples were heated to 100° C. for 1 hour in an oven).

[3] = Thermostability of xanthine and hypoxanthine; details: room temperature and 120° C., 20 h, acidic and neutral pH
Experimental: These solutions were divided and the pH of one sample of each compound was adjusted to 2 with HCl. 4.5 mL of each solution was placed in a duran bottle with Teflon tape wrapped around the threads to prevent evaporation. The samples were heated at 120° C. for 20 h. The remaining solutions were kept at 25° C. Each of the samples was diluted 10-fold to 7.5 ppm before analysis.

galactose oxidase [4] = target: T2, galactose oxidase (Gibberella zeae, UniProt P0CS93)
T2 sequence (P0CS93 42-680 limits assumed): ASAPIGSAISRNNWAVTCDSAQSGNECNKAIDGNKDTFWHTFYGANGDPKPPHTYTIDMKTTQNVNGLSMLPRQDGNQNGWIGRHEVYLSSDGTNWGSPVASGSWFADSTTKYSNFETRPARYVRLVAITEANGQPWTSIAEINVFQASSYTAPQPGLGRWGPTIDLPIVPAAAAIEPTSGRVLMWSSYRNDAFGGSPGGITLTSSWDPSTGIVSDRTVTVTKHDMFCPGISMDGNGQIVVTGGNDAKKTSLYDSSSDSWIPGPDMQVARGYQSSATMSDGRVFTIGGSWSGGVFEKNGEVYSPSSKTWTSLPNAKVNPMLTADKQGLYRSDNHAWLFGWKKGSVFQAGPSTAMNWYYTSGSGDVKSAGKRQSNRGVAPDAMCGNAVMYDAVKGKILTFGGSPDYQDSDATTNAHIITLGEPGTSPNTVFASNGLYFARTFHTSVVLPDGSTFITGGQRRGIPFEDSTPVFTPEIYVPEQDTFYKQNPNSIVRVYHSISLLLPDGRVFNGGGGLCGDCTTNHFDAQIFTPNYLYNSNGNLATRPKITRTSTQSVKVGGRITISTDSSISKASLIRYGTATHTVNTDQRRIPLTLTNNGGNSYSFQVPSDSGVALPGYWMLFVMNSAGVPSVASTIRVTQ

[5] = Thermal stability of galactose and derivatives; details: 20 h
Experimental: The thermal stability of both galactose and octy-galactose was investigated. Galactose and octyl-galacotse solutions (50 ppm, 30 mL) were prepared in both deionised water and formation water. These solutions were divided and the pH of one water sample and one formation water sample was adjusted to 2 with HCl. 4.5 mL of each solution was placed in a duran bottle with Teflon tape wrapped around the threads to prevent evaporation. The eight samples were heated at 100 or 120° C. for 20 h. The remaining solutions were kept at 4° C. inbetween experiments. Each of the samples was diluted 10-fold before analysis.

galactose oxidase [6] = target: T2, galactose oxidase; type: biochemical

T1 sequence (P80457 whole entry): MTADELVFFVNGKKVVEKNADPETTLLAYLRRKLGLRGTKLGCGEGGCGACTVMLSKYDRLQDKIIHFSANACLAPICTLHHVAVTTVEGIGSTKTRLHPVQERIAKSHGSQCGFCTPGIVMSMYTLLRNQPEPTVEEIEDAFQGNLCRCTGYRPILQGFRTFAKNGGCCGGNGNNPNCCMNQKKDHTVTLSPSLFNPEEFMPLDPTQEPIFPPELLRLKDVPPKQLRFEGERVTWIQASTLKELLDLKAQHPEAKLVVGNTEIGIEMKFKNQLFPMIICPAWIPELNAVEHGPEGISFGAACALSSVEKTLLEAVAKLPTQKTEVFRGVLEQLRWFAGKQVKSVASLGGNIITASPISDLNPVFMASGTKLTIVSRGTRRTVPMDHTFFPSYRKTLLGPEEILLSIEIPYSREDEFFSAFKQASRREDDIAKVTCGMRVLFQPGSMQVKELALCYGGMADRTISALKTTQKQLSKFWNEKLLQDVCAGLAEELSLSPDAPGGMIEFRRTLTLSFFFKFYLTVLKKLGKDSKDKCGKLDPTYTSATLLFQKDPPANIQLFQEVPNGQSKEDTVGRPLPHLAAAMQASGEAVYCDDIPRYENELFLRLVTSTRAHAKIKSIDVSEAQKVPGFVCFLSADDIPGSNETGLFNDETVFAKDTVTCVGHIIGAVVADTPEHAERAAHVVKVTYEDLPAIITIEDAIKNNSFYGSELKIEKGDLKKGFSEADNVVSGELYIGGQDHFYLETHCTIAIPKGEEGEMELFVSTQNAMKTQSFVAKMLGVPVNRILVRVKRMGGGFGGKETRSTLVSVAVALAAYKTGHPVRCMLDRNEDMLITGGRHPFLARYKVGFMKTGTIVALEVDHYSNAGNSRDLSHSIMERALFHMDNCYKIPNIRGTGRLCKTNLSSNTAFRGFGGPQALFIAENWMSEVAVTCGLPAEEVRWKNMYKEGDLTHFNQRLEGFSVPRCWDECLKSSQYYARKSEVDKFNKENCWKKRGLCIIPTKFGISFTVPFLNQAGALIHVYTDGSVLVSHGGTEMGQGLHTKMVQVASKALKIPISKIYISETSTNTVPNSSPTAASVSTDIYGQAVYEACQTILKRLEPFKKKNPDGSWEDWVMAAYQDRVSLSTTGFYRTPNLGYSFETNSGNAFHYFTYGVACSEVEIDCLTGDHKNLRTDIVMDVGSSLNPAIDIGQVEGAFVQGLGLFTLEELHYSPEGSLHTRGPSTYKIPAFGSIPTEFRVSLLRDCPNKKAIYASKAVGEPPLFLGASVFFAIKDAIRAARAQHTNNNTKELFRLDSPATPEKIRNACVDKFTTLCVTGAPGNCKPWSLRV

## O=c1[nH]c(=O)c2[nH]cnc2[nH]1 [xanthine]
Xanthine oxidase
  limit of detection: less than 0.16 ppm

## O=C(O)CCCC[C@@H]1SC[C@@H]2NC(=O)N[C@@H]21 [biotin]
Seawater bacteria
  inhibition to seawater bacteria: 42%
[1]
  degradation: 14%
[2]
  effect of heat treatment on biotin detection: unaffected
250 nM in synthetic formation water, 150° C., 3 kbar, 15 minutes
  drop in fluorescence after heat and pressure: no obvious drop in fluorescence
Dilution series, increasing temperatures up to 150° C., 4 kbar, aqueous phase of produced fluids
  loss of fluorescence due to temperature and pressure: No loss of fluorescence

## O=c1[nH]cnc2nc[nH]c12 [hypoxanthine]
Xanthine oxidase
  limit of detection: > 0.02 ppm
[3]
  thermal stability: stable

## O=C[C@H](O)[C@@H](O)[C@@H](O)[C@H](O)CO [galactose]
Galactose oxidase [4]
  detectable concentration range: 0-30 ppm
  limit of detection: ca. 0.3 ppm
[5]; above 100° C. (120° C.)
  thermal stability: a drop in concentration is observed
[5]; to 100° C., water and formation water, pH 6-7 and pH 2
  thermal stability: sufficiently stable

## O=C(CO)[C@@H](O)[C@H](O)[C@H](O)CO [fructose]
Galactose oxidase [6]
  oxidation by galactose oxidase / interference with galactose assay: can be oxidized by galactose oxidase
